Measured values published in patent US20240366543A1, “METHODS OF TREATING METHYLMALONIC ACIDEMIA AND PROPIONIC ACIDEMIA” (HemoShear Therapeutics, Inc., priority 2021, published 2024).
Values joined by “and” are separate entries in the source; they are usually repeats but may differ in a detail not shown here. Identical values can stand only once. Like-named read-outs stand apart in the source and are kept apart here.

Assays:
[1] = Phase 2 study preliminary plasma pharmacokinetics in PA/MMA subjects; type: in vivo, human; settings: for C24 / concentration at 24 h: 24 hours post-dose; for C24: C24projected: ratio observed to projected; for AUC(0-t): read-out: AUC0-24 h; for concentration at 24 h: read-out: C24
Experimental: Part A is the dose escalation phase to assess the initial safety and to confirm the pharmacologic activity of Compound 5 in subjects with PA and MMA. Screening for eligibility took place within 28 days of enrollment. All subjects were initially evaluated during a 4-week run-in period followed by within-subject dose escalation of 3 doses (1, 3, and 10 mg/kg QD of sodium 2,2-dimethylbutanoate); dose escalation interval of 4 weeks) to check for improvement in disease-related biomarkers.
Plasma will be analyzed by liquid chromatography with tandem mass spectrometry (LC-MS/MS) with a lower limit of quantitation of 0.100 μg/mL. Samples collected for analyses of Compound 5 (plasma/serum/whole blood)] concentration may also be used to evaluate safety or efficacy aspects related to concerns arising during or after the study.
Preliminary pharmacokinetics (PK) data from the first two subjects of Study described in Examples 7-8 was evaluated at 1 mg/kg, 3 mg/kg and 10 mg/kg of Compound 5 dosed once daily (QD).

[2] = system: primary hepatocytes (pHeps) from MMA donors; assay: HemoShear REVEAL-Tx Technology, MMA pHeps; type: cell-based, human
Normal pHeps = assay: HemoShear Technology, normal pHeps; type: cell-based, human; settings: exposed 6 days
Source text: For this experiment, we deployed the HemoShear REVEAL-Tx™ technology, which is based on the cone-and-plate configuration or viscometer combined with a porous polycarbonate membrane that mimics a filtering layer of sinusoidal endothelial cells (see: Dash A, Deering TG, Marukian S, et al. Physiological Hemodynamics and Transport Restore Insulin and Glucagon Responses in a Normal Glucose Milieu in Hepatocytes In Vitro. 73rd Scientific Sessions of the American Diabetes Association, 2013 (Chicago), and U.S. Pat. Nos. 7,811,782 and 9,500,642, and 9,617,521, each of which is incorporated by reference herein in its entirety). […]
In PA and MMA pHeps, where P-CoA and M-CoA levels are very high, there is a dramatic reduction in P-CoA and M-CoA pools with Compound 5 treatment (Table 2 and Table 3). […] The effect of Compound 5 on levels of acetyl-CoA were measured in PA and MMA pHeps in acute static experiments and in PA, MMA and normal pHeps following chronic exposures in the HemoShear Technology (FIG. 5B; FIG. 6B). […]
To further evaluate the hypothesis that Compound 5 drives a redistribution of the acyl-CoA pools resulting in a reduction in P-CoA and M-CoA, the levels of CoASH were measured in the PA and MMA disease models. […]

[3] = 1 mg/kg QD, single dose, individual subjects 010-1001, 010-1002, preliminary
[4] = 1 mg/kg QD, steady-state, individual subjects
[5] = 3 mg/kg QD, steady-state, individual subjects
[6] = 10 mg/kg QD, steady-state, individual subjects
[7] = human, plasma, oral, 1 mg/kg, 1 mg/kg QD, steady-state, individual subjects
[8] = human, plasma, oral, 10 mg/kg, 10 mg/kg QD, steady-state, individual subjects

AUC0-24 h [1, 3]: 22800 ng·h/mL
Cmax [1, 3]: 1740 ng/mL
C24 [1, 4]: 0.765 µg/mL
AUC0-24 h [1, 4]: 36500 ng·h/mL
Cmax ([1]; 1 mg/kg QD, steady-state, individual subjects 010-1001, 010-1002): 2930 ng/mL
C24: C24projected [1, 4]: 1.27 and 0.829
C24 [1, 5]: 3.34 µg/mL and 1.01 µg/mL
AUC0-24 h [1, 5]: 115000 ng·h/mL
Cmax ([1]; 3 mg/kg QD, steady-state, individual subjects 010-1001, 010-1002): 11400 ng/mL
C24: C24projected [1, 5]: 1.21 and 0.365
C24 [1, 6]: 13.1 µg/mL
AUC0-24 h [1, 6]: 678000 ng·h/mL
Cmax ([1]; 10 mg/kg QD, steady-state, individual subjects 010-1001, 010-1002): 50600 ng/mL
C24: C24projected [1, 6]: 0.985 and 1.42
AUC(0-t) ([1]; human, plasma, oral, 1 mg/kg, 1 mg/kg QD, single dose, individual subjects 010-1001, 010-1002, preliminary): 30800 ng·h/mL
Cmax ([1]; human, plasma, oral, 1 mg/kg, 1 mg/kg QD, single dose, individual subjects 010-1001, 010-1002, preliminary, read-out: Cmax): 2620 ng/mL
concentration at 24 h [1, 7]: 1170 ng/mL
Cmax ([1]; human, plasma, oral, 1 mg/kg, 1 mg/kg QD, steady-state, individual subjects 010-1001, 010-1002, read-out: Cmax): 4410 ng/mL
AUC(0-t) [1, 7]: 56500 ng·h/mL
Cmax ([1]; human, plasma, oral, 3 mg/kg, 3 mg/kg QD, steady-state, individual subjects 010-1001, 010-1002, read-out: Cmax): 15900 ng/mL
AUC(0-t) ([1]; human, plasma, oral, 3 mg/kg, 3 mg/kg QD, steady-state, individual subjects): 189000 ng·h/mL
concentration at 24 h [1, 8]: 9090 ng/mL
Cmax ([1]; human, plasma, oral, 10 mg/kg, 10 mg/kg QD, steady-state, individual subjects 010-1001, 010-1002, read-out: Cmax): 50700 ng/mL
AUC(0-t) [1, 8]: 557000 ng·h/mL
Compound: CCC(C)(C)C(=O)O [Compound 5, 2,2-dimethylbutyric acid]
average reduction in the C3/C2 ratio (log 2 fold change) ([2]; 30 μM): −2.2±0.2 log 2 fold change
% change at 30 μM, 2-Methylcitric acid (2MC) ([2]; average ± SD): −66.7±14.9%
% change at 30 μM, 12C-Acetyl-Carnitine (C2) ([2]; average ± SD): 44.6 ± 26.8%
% change at 30 μM, 12C-Methylmalonyl-CoA (M-CoA) ([2]; average ± SD): −55±6.6%
% change at 30 μM, 12C-Propionyl-Carnitine (C3) ([2]; average ± SD): −65.9±10.7%
% change at 30 μM, 12C-Propionyl-CoA (P-CoA) ([2]; average ± SD): −74.2±11.6%
Percent change at 30 μM, 12C-Acetyl-CoA ([2]; exposed 6 days): 13.5 ± 24.9%
Percent change at 30 μM, CoASH ([2]; exposed 6 days): −22.3 ± 22.3%
Percent change at 30 μM, 12C-Acetyl-CoA (Normal pHeps): 20 ± 2.9%
Percent change at 30 μM, CoASH (Normal pHeps): −35.2 ± 3%
